The target of data set [1] is T1, KSR (Mus musculus, UniProt Q61097).
T1 sequence (Q61097 1-873): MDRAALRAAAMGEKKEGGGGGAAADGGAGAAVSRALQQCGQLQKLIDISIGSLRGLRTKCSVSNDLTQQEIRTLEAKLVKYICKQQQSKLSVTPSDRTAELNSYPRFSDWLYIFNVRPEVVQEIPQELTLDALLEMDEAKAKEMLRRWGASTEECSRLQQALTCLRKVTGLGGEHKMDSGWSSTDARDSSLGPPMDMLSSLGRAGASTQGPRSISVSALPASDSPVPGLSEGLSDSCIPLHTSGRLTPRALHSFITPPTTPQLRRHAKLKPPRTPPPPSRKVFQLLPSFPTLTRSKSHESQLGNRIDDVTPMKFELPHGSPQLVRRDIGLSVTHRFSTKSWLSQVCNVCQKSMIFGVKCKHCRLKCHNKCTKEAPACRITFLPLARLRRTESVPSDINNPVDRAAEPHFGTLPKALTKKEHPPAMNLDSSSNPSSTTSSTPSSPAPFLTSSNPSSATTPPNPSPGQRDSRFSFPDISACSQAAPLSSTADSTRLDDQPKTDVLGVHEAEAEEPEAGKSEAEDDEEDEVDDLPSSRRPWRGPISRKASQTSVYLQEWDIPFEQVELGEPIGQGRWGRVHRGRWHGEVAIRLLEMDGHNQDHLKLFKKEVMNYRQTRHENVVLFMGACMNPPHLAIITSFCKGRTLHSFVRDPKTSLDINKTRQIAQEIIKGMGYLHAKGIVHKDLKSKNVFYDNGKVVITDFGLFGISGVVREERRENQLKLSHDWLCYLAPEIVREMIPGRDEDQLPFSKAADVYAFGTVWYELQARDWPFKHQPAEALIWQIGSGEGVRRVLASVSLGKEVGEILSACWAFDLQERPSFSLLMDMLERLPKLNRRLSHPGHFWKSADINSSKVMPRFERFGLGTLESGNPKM
The data set can be described thus: KSR autophosphorylation in vitro. The data set is classed as biochemical, mouse (KSR immunoprecipitated from COS-7 cells). On the set-up: Raf-1 peptides as substrate. As to the method: Phosphorylated KSR was resolved and detected as in FIG. 2A.
KSR was immunoprecipitated as above from 0.8 mg NP-40 lysate protein with 40 μl agarose-conjugated anti-Flag antibody at 4° C. for 4 hrs or overnight. […] The reaction was stopped by addition of Laemmli sample buffer. Samples were resolved by 7.5% sodium dodecyl sulfate-polyacrylamide gel electrophoresis (SDS-PAGE) and autoradiographed.

In data set [2] the test system is ceramide-activated protein kinase. The data set can be described thus: Ceramide-activated protein kinase activity (EGFR peptide) in EL-4 cell fractions. To be noted: 10 nM to 1 μM.

The results in this text go back to patent US6040149A, “Assay for identifying agents which act on the ceramide-activated protein kinase, kinase suppressor of ras, and methods of using said agents” (priority 1997, dated 2000).

Take `CCCCCCCCCCCCCC(=O)O[C@@H]1[C@@H](C)[C@@]2(O)[C@@H](C=C(CO)C[C@]3(O)C(=O)C(C)=C[C@@H]23)[C@@H]2C(C)(C)[C@]12OC(C)=O` [TPA, 12-0-tetradecanoylphorbol-13-acetate]: the “effect on activation of KSR” value in data set [1] is “no effect”. Turning to `CCCCCCCCCCCCC/C=C/[C@@H](O)[C@@H](N)CO` [sphingosine], the “enhancement of kinase activity, of control” value in data set [2] is recorded as 1.5-2.5 of control.
